# Several values for one entry are separate records, joined by “and”; a condition that tells them apart may be missing. Equal entries are not always repeated.
# What was measured:
# [1] = test system: Salmonella typhimurium TA-100; assay type: cell-based
# Text: The compounds of this invention have the specific advantage over the corresponding des-N-oxide compounds in that the compounds are non-mutagenic in a test designed to determine mutagenicity which is described in J. Pharm. Exp. Therap., 200, 1 (1977).
# Mutagenic Activity Using Salmonella typhimurium (TA-98 and TA-100)
# [2] = Acute intramuscular toxicity (LD50) in uninfected mice; conditions: mouse, in vivo, im, read-out: Approximate Acute Intramuscular LD50
# Text: Approximate Acute Intramuscular LD50
# Values in Uninfected Mice
# [3] = test system: Mature S. mansoni, Puerto Rican/Michigan strain; assay: Primary screen in mice, single oral doses, mature S. mansoni infection (Puerto Rican/Michigan strain); assay type: in vivo
# Text: (§1) The compounds of the invention are useful in the treatment of schistosomiasis. Compounds of this invention, when placed in the primary screen in mice described in Am. J. Trop.
# (§2) Effects of Single Oral Doses (Aqueous Solutions ) of 2-Chloro-
# (§3) 4-(4-alkyl-1-piperazinyl)benzenemethanol, N^ω -oxides Against
# (§4) Mature S. mansoni Infections in Mice
# [4] = test system: Mature S. mansoni, Puerto Rican/Walter Reed strain; assay: Primary screen in mice, single oral doses, mature S. mansoni infection (Puerto Rican/Walter Reed strain); assay type: in vivo
# Text: as §1, §2, §3, §4
# [5] = test system: Mature S. mansoni, Liberian strain; assay: Primary screen in mice, single oral doses, mature S. mansoni infection (Liberian strain); assay type: in vivo
# Text: as §1, §2, §3, §4
# [6] = test system: Mature S. mansoni, Puerto Rican/Sterling Winthrop strain; assay: Primary screen in mice, single oral doses, mature S. mansoni infection (Puerto Rican/Sterling Winthrop strain); assay type: in vivo
# Text: as §1, §2, §3, §4
# [7] = test system: Mature S. mansoni, Brazilian strain; assay: Primary screen in mice, single oral doses, mature S. mansoni infection (Brazilian strain); assay type: in vivo
# Text: as §1, §2, §3, §4
# [8] = test system: Mature S. mansoni, St. Lucian strain; assay: Primary screen in mice, single oral doses, mature S. mansoni infection (St. Lucian strain); assay type: in vivo
# Text: as §1, §2, §3, §4
# [9] = test system: Mature S. mansoni (Puerto Rican/Walter Reed Strain); assay: Secondary test in monkeys, mature S. mansoni infection; assay type: in vivo; conditions: monkeys (Cebus apella), 50 × 4 mg/kg
# Text: The preferred compound of the invention, when placed in a secondary test in monkeys described in Am. J. Trop. Med. Hyg. 15, 705 (1966) gave the following data:
# Effects of 2-chloro-4-(4-methyl-1-piperazinyl)benzenemethanol,
# N^ω -oxide Against Mature S. mansoni (Puerto Rican/Walter Reed
# Strain) Infections in Monkeys (Cebus apella)
compound,measurement,setting,value
"CN1CCN(c2ccc(CO)c(Cl)c2)CC1 [CH3 des N-oxide, 2-chloro-4-(4-methyl-1-piperazinyl)benzenemethanol, reference compound]","Mutagenic activity, Revertants per n mole",[1],0.1 Revertants per n mole
same,LD50,[2],200 mg/kg
"CC(C)[N+]1([O-])CCN(c2ccc(CO)c(Cl)c2)CC1 [CH(CH3)2, 2-chloro-4-[4-(1-methylethyl)-1-piperazinyl]-benzenemethanol, N^ω -oxide]",% Mice Cured,[3]; single oral dose 40 mg/kg,19%
same,% Reduction Live Worms,[3]; single oral dose 40 mg/kg,57%
same,% Mice Cured,[3]; single oral dose 75 mg/kg,100%
same,% Reduction Live Worms,[3]; single oral dose 75 mg/kg,100%
same,% Mice Cured,[3]; single oral dose 125 mg/kg,57%
same,% Reduction Live Worms,[3]; single oral dose 125 mg/kg,90%
same,% Mice Cured,[4]; single oral dose 40 mg/kg,75%
same,% Reduction Live Worms,[4]; single oral dose 40 mg/kg,96%
same,% Mice Cured,[4]; single oral dose 75 mg/kg,72%
same,% Reduction Live Worms,[4]; single oral dose 75 mg/kg,85%
same,"Mutagenic activity, Revertants per n mole",[1],0.007 Revertants per n mole
same,% Mice Cured,[5]; single oral dose 75 mg/kg,0%
same,% Reduction Live Worms,[5]; single oral dose 75 mg/kg,42%
same,% Mice Cured,[5]; single oral dose 125 mg/kg,100%
same,% Reduction Live Worms,[5]; single oral dose 125 mg/kg,100%
same,% Mice Cured,[6]; single oral dose 75 mg/kg,0%
same,% Reduction Live Worms,[6]; single oral dose 75 mg/kg,25%
same,LD50,[2],> 1500 mg/kg
same,% Mice Cured,[7]; single oral dose 40 mg/kg,0%
same,% Reduction Live Worms,[7]; single oral dose 40 mg/kg,32%
same,% Mice Cured,[8]; single oral dose 40 mg/kg,0%
same,% Reduction Live Worms,[8]; single oral dose 40 mg/kg,50%
same,% Mice Cured,[8]; single oral dose 75 mg/kg,57%
same,% Reduction Live Worms,[8]; single oral dose 75 mg/kg,75%
"CC[N+]1([O-])CCN(c2ccc(CO)c(Cl)c2)CC1 [C2 H5, 2-chloro-4-(4-ethyl-1-piperazinyl)benzenemethanol, N^ω -oxide]",% Mice Cured,[3]; single oral dose 75 mg/kg,71%
same,% Reduction Live Worms,[3]; single oral dose 75 mg/kg,92%
same,LD50,[2],> 250 mg/kg
"CCN1CCN(c2ccc(CO)c(Cl)c2)CC1 [C2 H5 des N-oxide, 2-chloro-4-(4-ethyl-1-piperazinyl)benzenemethanol, reference compound]",LD50,[2],150 mg/kg
"C[N+]1([O-])CCN(c2ccc(CO)c(Cl)c2)CC1 [CH3, 2-chloro-4-(4-methyl-1-piperazinyl)benzenemethanol, N^ω -oxide]",% Mice Cured,[3]; single oral dose 40 mg/kg,43%
same,% Reduction Live Worms,[3]; single oral dose 40 mg/kg,79%
same,% Mice Cured,[3]; single oral dose 75 mg/kg,52%
same,% Reduction Live Worms,[3]; single oral dose 75 mg/kg,90%
same,% Mice Cured,[3]; single oral dose 300 mg/kg,87%
same,% Reduction Live Worms,[3]; single oral dose 300 mg/kg,99%
same,% Mice Cured,[4]; single oral dose 100 mg/kg,100%
same,% Reduction Live Worms,[4]; single oral dose 100 mg/kg,100%
same,% Mice Cured,[5]; single oral dose 50 mg/kg,0%
same,% Reduction Live Worms,[5]; single oral dose 50 mg/kg,25%
same,Final Egg Count,[9],0
same,% Reduction Live Worms,"[9]; N^ω -oxide, 4 mg/kg",92% and 91%
same,% Mice Cured,[6]; single oral dose 40 mg/kg,33%
same,% Reduction Live Worms,[6]; single oral dose 40 mg/kg,56%
same,% Mice Cured,[6]; single oral dose 75 mg/kg,60%
same,% Reduction Live Worms,[6]; single oral dose 75 mg/kg,69%
same,LD50,[2],1500 mg/kg
same,% Mice Cured,[7]; single oral dose 20 mg/kg,0%
same,% Reduction Live Worms,[7]; single oral dose 20 mg/kg,73%
same,% Mice Cured,[7]; single oral dose 40 mg/kg,51%
same,% Reduction Live Worms,[7]; single oral dose 40 mg/kg,88%
same,% Mice Cured,[8]; single oral dose 150 mg/kg,0%
same,% Reduction Live Worms,[8]; single oral dose 150 mg/kg,16%
"CC(C)N1CCN(c2ccc(CO)c(Cl)c2)CC1 [CH(CH3)2 des N-oxide, 2-chloro-4-[4-(1-methylethyl)-1-piperazinyl]benzenemethanol, reference compound]",LD50,[2],100 mg/kg
